Assay results published in ChEMBL document CHEMBL5620408, “Discovery of novel diarypyrimidine derivatives bearing six-membered non-aromatic heterocycles as potent HIV-1 NNRTIs with improved anti-resistance and drug-like profiles” (Eur J Med Chem, 2023).
The source made the active and inactive calls. The rule behind the calls is not given here.

How the values were obtained:
[1] = Selectivity index, ratio of CC50 for human MT4 cells to EC50 for antiviral activity against HIV IIIB
[2] = system: Human immunodeficiency virus 1; assay: Antiviral activity against HIV1 harboring L100I mutant infected in MT4 cells; format: functional, organism-based; details: Human immunodeficiency virus 1, MT4
[3] = system: MT4; assay: Cytotoxicity against human MT4 cells; format: toxicity, cell-based
[4] = system: Human immunodeficiency virus 1; assay: microbe, parasite or virus in culture; details: Human immunodeficiency virus 1, RES056, MT4
Description: (§1) Antiviral activity against HIV1 RES056 infected in MT-4 cells assessed as viral induced cytopathic effect by MTT assay

[5] = biological target: Human immunodeficiency virus type 1 reverse transcriptase (Human immunodeficiency virus 1, UniProt Q72547); assay: Inhibition of wild type HIV-1 reverse transcriptase
[6] = system: Human immunodeficiency virus 1; assay: Antiviral activity against HIV1 harboring Y181C mutant infected in MT4 cells; format: functional, organism-based; details: Human immunodeficiency virus 1, MT4
[7] = system: Human immunodeficiency virus 1; assay: Antiviral activity against HIV1 harboring E138K mutant infected in MT4 cells; format: functional, organism-based; details: Human immunodeficiency virus 1, MT4
[8] = system: Human immunodeficiency virus 1; assay: Antiviral activity against HIV1 harboring K103N mutant infected in MT4 cells; format: functional, organism-based; details: Human immunodeficiency virus 1, MT4
[9] = system: Human immunodeficiency virus 1; assay: microbe, parasite or virus in culture; details: Human immunodeficiency virus 1, IIIB, MT4
Description: Antiviral activity against HIV1 IIIB infected in MT-4 cells assessed as viral induced cytopathic effect by MTT assay

[10] = Cytotoxicity against human MT4 cells assessed as reduction in cell viability by MTT assay; format: toxicity, cell-based
[11] = system: Human immunodeficiency virus 1; assay: Antiviral activity against HIV1 NL4-3 infected in MT4 cells; format: functional, organism-based; details: Human immunodeficiency virus 1, NL4-3, MT4
[12] = system: Human immunodeficiency virus 1; assay: Antiviral activity against HIV1 harboring F227L/V106A double mutant infected in MT4 cells; format: functional, organism-based; details: Human immunodeficiency virus 1, MT4
[13] = Selectivity index, ratio of CC50 for human MT4 cells to EC50 for antiviral activity against HIV RES056
[14] = system: Human immunodeficiency virus 1; assay: Antiviral activity against HIV1 harboring Y188L mutant infected in MT4 cells; format: functional, organism-based; details: Human immunodeficiency virus 1, MT4
[15] = system: Human immunodeficiency virus 1; assay: Antiviral activity against HIV1 NL4-3 infected in MT4 cells at 25 ng/ml; format: functional, organism-based
[16] = system: Human immunodeficiency virus 1; details: RES056, MT4
Description: as §1

Row | SMILES | selectivity ratio [1] | EC50 [2] [µM] | Activity [3] | EC50 [4] [µM] | IC50 [5] [µM] | EC50 [6] [µM] | EC50 [7] [µM] | EC50 [8] [µM] | EC50 [9] [µM] | CC50 [10] [µM] | EC50 [11] [µM] | EC50 [12] [µM] | selectivity ratio [13] | EC50 [14] [µM] | Activity [15] | Activity [16]
1 | Cc1cc(/C=C/C#N)cc(C)c1Oc1ccnc(Nc2ccc(N3CCN(S(C)(=O)=O)CC3)c(F)c2)n1 | 1710 | 0.022 | Non-Toxic | 0.67 | 0.04 | 0.03 | 0.011 | 0.003 | 0.002 | 3.21 | 0.00048 | 0.034 | 5 | > 3.21 |  | 
2 | Cc1cc(C#N)cc(C)c1Oc1ccnc(Nc2ccc(C3CCN(S(=O)(=O)C(C)C)CC3)cc2)n1 |  |  | Non-Toxic |  |  |  |  |  |  |  |  |  |  |  | inactive | 
3 | CCS(=O)(=O)N1CCN(c2ccc(Nc3nccc(Oc4c(C)cc(C#N)cc4C)n3)cc2F)CC1 | > 55100 | 0.13 | Non-Toxic | > 245 | 0.058 | 0.19 | 0.064 | 0.021 | 0.004 | > 245 | 0.0102 | 0.055 |  | > 245 |  | 
4 | CCS(=O)(=O)N1CCN(c2ccc(Nc3nccc(Oc4c(C)cc(/C=C/C#N)cc4C)n3)cc2F)CC1 | 37900 | 0.021 | Non-Toxic | 1.73 | 0.054 | 0.03 | 0.015 | 0.004 | 0.003 | 111 | 0.00164 | 0.036 | 64 | > 111 |  | 
5 | Cc1cc(C#N)cc(C)c1Oc1ccnc(Nc2ccc(C3CCN(S(C)(=O)=O)CC3)cc2)n1 |  |  | Non-Toxic |  |  |  |  |  |  |  |  |  |  |  | inactive | 
6 | Cc1cc(/C=C/C#N)cc(C)c1Oc1ccnc(Nc2ccc(C3CCN(S(C)(=O)=O)CC3)cc2)n1 | 1030 | 0.092 | Non-Toxic | > 4.3 | 0.044 | 0.32 | 0.03 | 0.014 | 0.004 | 4.3 | 0.00623 | 0.042 | < 1 | > 4.3 |  | 
7 | Cc1cc(/C=C/C#N)cc(C)c1Oc1ccnc(Nc2ccc(C3CCN(S(=O)(=O)C4CC4)CC3)cc2)n1 | > 7650 | 0.11 | Non-Toxic | > 37.8 | 0.079 | 0.38 | 0.051 | 0.02 | 0.005 | > 37.8 | 0.00595 | 0.057 |  | > 37.8 |  | 
8 | Cc1cc(C#N)cc(C)c1Oc1ccnc(Nc2ccc(C3CCN(S(=O)(=O)C4CC4)CC3)cc2)n1 |  |  | Non-Toxic |  |  |  |  |  |  |  |  |  |  |  | inactive | 
9 | CCS(=O)(=O)N1CCN(c2ccc(Nc3nccc(Oc4c(C)cc(C#N)cc4C)n3)cc2)CC1 |  |  | Non-Toxic |  |  |  |  |  |  |  |  |  |  |  | inactive | 
10 | Cc1cc(C#N)cc(C)c1Oc1ccnc(Nc2ccc(N3CCN(S(=O)(=O)C4CC4)CC3)cc2)n1 |  |  | Non-Toxic |  |  |  |  |  |  |  |  |  |  |  | inactive | 
11 | Cc1cc(/C=C/C#N)cc(C)c1Oc1ccnc(Nc2ccc(N3CCN(S(C)(=O)=O)CC3)cc2)n1 | 536 | 0.37 | Non-Toxic | > 2.57 | 0.065 | 0.96 | 0.85 | 0.037 | 0.005 | 2.57 | 0.00184 | 0.27 | < 1 | > 2.57 |  | 
12 | Cc1cc(/C=C/C#N)cc(C)c1Oc1ccnc(Nc2ccc(N3CCN(S(=O)(=O)N(C)C)CC3)c(F)c2)n1 | 993 | 0.058 | Non-Toxic | > 4.59 | 0.078 | 0.12 | 0.032 | 0.009 | 0.005 | 4.59 | 0.00567 | 0.068 | < 1 | > 4.59 |  | 
13 | Cc1cc(C#N)cc(C)c1Oc1ccnc(Nc2ccc(C3CCN(S(=O)(=O)N(C)C)CC3)cc2)n1 |  |  | Non-Toxic |  |  |  |  |  |  |  |  |  |  |  | inactive | 
14 | Cc1cc(C#N)cc(C)c1Oc1ccnc(Nc2ccc(N3CCN(S(C)(=O)=O)CC3)cc2)n1 |  |  | Non-Toxic |  |  |  |  |  |  |  |  |  |  |  | inactive | 
15 | Cc1cc(/C=C/C#N)cc(C)c1Oc1ccnc(Nc2ccc(N3CCOCC3)c(F)c2)n1 | 49600 | 0.027 |  | 0.84 | 0.046 | 0.044 | 0.025 | 0.005 | 0.005 | 228 |  | 0.1 | 272 | 4.19 |  | 
16 | Cc1cc(/C=C/C#N)cc(C)c1Oc1ccnc(Nc2ccc(N3CCN(S(=O)(=O)C4CC4)CC3)c(F)c2)n1 | 32100 |  | Non-Toxic |  | 0.1 |  |  |  | 0.005 | 170 | 0.00567 |  |  |  |  | inactive
17 | Cc1cc(/C=C/C#N)cc(C)c1Oc1ccnc(Nc2ccc(N3CC[S+]([O-])CC3)c(F)c2)n1 | 9800 | 0.034 |  | 1.3 | 0.027 | 0.084 | 0.024 | 0.004 | 0.001 | 13.3 |  | 0.13 | 10 | 5.12 |  | 
18 | Cc1cc(C#N)cc(C)c1Oc1ccnc(Nc2ccc(N3CCN(S(=O)(=O)N(C)C)CC3)c(F)c2)n1 | 10300 |  | Non-Toxic | > 186 | 0.15 |  |  |  | 0.018 | 186 |  |  |  |  | inactive | 
19 | CCS(=O)(=O)N1CCN(c2ccc(Nc3nccc(Oc4c(C)cc(/C=C/C#N)cc4C)n3)cc2)CC1 | > 7740 | 0.45 | Non-Toxic | > 38.6 | 0.1 | 0.81 | 0.085 | 0.048 | 0.005 | > 38.6 | 0.00218 | 0.24 |  | > 38.6 |  | 
20 | CCS(=O)(=O)N1CCC(c2ccc(Nc3nccc(Oc4c(C)cc(C#N)cc4C)n3)cc2)CC1 |  |  | Non-Toxic |  |  |  |  |  |  |  |  |  |  |  | inactive | 
21 | Cc1cc(C#N)cc(C)c1Oc1ccnc(Nc2ccc(N3CCN(S(=O)(=O)C(C)C)CC3)cc2)n1 |  |  | Non-Toxic |  |  |  |  |  |  |  |  |  |  |  | inactive | 
22 | Cc1cc(C#N)cc(C)c1Oc1ccnc(Nc2ccc(N3CCN(S(=O)(=O)N(C)C)CC3)cc2)n1 |  |  | Non-Toxic |  |  |  |  |  |  |  |  |  |  |  | inactive | 
23 | Cc1cc(/C=C/C#N)cc(C)c1Oc1ccnc(Nc2ccc(N3CCN(S(=O)(=O)C(C)C)CC3)c(F)c2)n1 | 3620 | 0.042 | Non-Toxic | 5.88 | 0.097 | 0.094 | 0.029 | 0.007 | 0.005 | 18.1 | 0.0053 | 0.1 | 3 | > 18.1 |  | 
